Laboratory results: US6358885B1, “Substituted phenylheterocyclic herbicides” (Mississippi State University, priority 1992, dated 2002)

Key:
[1] = tested on: pigweed; assay: Test C preemergence/postemergence greenhouse plant response rating 0 to 100; format: in vivo, Amaranthusretroflexus; details: POSTEMERGENCE; for Plant response rating Pigweed: 0 to 100 scale
Outline: (§1)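 Compounds in non-phytotoxic solvent went onto sandy loam before emergence (seeded one day earlier) or onto plants at the one-to-four leaf stage. Duck salad was treated via flood water (~2.5 cm, maintained) over silt loam.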

[2] = tested on: giant foxtail; assay: as above; format: in vivo, Setaria faberii; details: POSTEMERGENCE; for Plant response rating, Giant foxtail: 0 to 100 scale
Outline: as §1

[3] = tested on: duck salad; assay: Test C flood test plant response rating 0 to 100; format: in vivo, Heteranthera limosa; details: for Plant response rating Duck salad: flood test species listed under POSTEMERGENCE, 0 to 100 scale
Outline: as §1

[4] = tested on: soybean; assay: Test C preemergence/postemergence greenhouse plant response rating 0 to 100; format: in vivo, Glycine max; details: POSTEMERGENCE; for Plant response rating, Soybean: 0 to 100 scale
Outline: as §1

[5] = tested on: cheatgrass; assay: Test B preemergence/postemergence greenhouse plant response rating 0 to 10; format: in vivo, Bromus secalinus; details: 0 to 10 scale
Outline: (§2)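 Both application timings were run together: seeds got compound preemergence, and established seedlings (two to eighteen cm) got it postemergence. Non-phytotoxic solvent carried the chemical. Ratings are visual, versus controls, at twelve to sixteen days.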

[6] = tested on: giant foxtail; assay: as above; format: in vivo, Setaria faberii; details: 0 to 10 scale
Outline: as §2

[7] = tested on: lambsquarters; assay: Test C preemergence/postemergence greenhouse plant response rating 0 to 100; format: in vivo, Chenopodium album; details: POSTEMERGENCE; for Plant response rating Lambsquarters: 0 to 100 scale
Outline: as §1

[8] = tested on: chickweed; assay: as above; format: in vivo, Stellaria media; details: POSTEMERGENCE; for Plant response rating, Chickweed: 0 to 100 scale
Outline: as §1

[9] = tested on: bedstraw; assay: Test B preemergence/postemergence greenhouse plant response rating 0 to 10; format: in vivo, Galium aparine; details: 0 to 10 scale
Outline: as §2

[10] = tested on: velvetleaf; assay: Test C preemergence/postemergence greenhouse plant response rating 0 to 100; format: in vivo, Abutilon theophrasti; details: POSTEMERGENCE; for Plant response rating, Velvetleaf: 0 to 100 scale
Outline: as §1

[11] = tested on: umbrella sedge; assay: Test C flood test plant response rating 0 to 100; format: in vivo, Cyperus difformis; details: for Plant response rating Umbrella sedge: flood test species listed under POSTEMERGENCE, 0 to 100 scale
Outline: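 Compounds in non-phytotoxic solvent applied preemergence to sandy loam one day after planting, postemergence at the 1–4 leaf stage, or to ~2.5 cm floodwater over silt loam.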

[12] = tested on: rape; assay: Test B preemergence/postemergence greenhouse plant response rating 0 to 10; format: in vivo, Brassica napus; details: 0 to 10 scale
Outline: as §2

[13] = tested on: cotton; assay: as above; format: in vivo, Gossypium hirsutum; details: 0 to 10 scale
Outline: as §2

[14] = tested on: morningglory; assay: as above; format: in vivo, Ipomoea hederacea; details: 0 to 10 scale
Outline: as §2

[15] = tested on: cocklebur; assay: as above; format: in vivo, Xanthium pensylvanicum; details: 0 to 10 scale
Outline: as §2

[16] = tested on: barley; assay: Test C preemergence/postemergence greenhouse plant response rating 0 to 100; format: in vivo, Hordeum vulgare; details: POSTEMERGENCE; for Plant response rating Barley Igri: 0 to 100 scale
Outline: as §1

[17] = tested on: crabgrass; assay: Test B preemergence/postemergence greenhouse plant response rating 0 to 10; format: in vivo, Digitaria spp.; details: 0 to 10 scale
Outline: as §2

[18] = tested on: cotton; assay: Test C preemergence/postemergence greenhouse plant response rating 0 to 100; format: in vivo, Gossypium hirsutum; details: POSTEMERGENCE; for Plant response rating, Cotton: 0 to 100 scale
Outline: as §1

[19] = POSTEMERGENCE section, flood test, Rate 4 g/ha
[20] = Rate 16 g/ha, under POSTEMERGENCE head (flood test species)

## CC(C)OC(=O)c1cc(-c2nn3c(c2Cl)CCCC3)c(F)cc1Cl [Compound 44]
[1]; 62 g/ha
  Plant response rating Pigweed: 100
[1]; 250 g/ha
  Plant response rating Pigweed: 100
[1]; Rate 4 g/ha
  Plant response rating (0 to 100), Pigweed: 90
[1]; Rate 16 g/ha
  Plant response rating (0 to 100), Pigweed: 100
[2]; 62 g/ha
  Plant response rating, Giant foxtail: 60
[2]; 250 g/ha
  Plant response rating, Giant foxtail: 100
[2]; Rate 4 g/ha
  Plant response rating (0 to 100), Giant foxtail: 20
[2]; Rate 16 g/ha
  Plant response rating (0 to 100), Giant foxtail: 40
[3]; [19]
  Plant response rating (0 to 100), Duck salad: 0
[3]; [20]
  Plant response rating (0 to 100), Duck salad: 30
[3]; 62 g/ha
  Plant response rating Duck salad: 70
[3]; 250 g/ha
  Plant response rating Duck salad: 90
[4]; 62 g/ha
  Plant response rating, Soybean: 50
[4]; 250 g/ha
  Plant response rating, Soybean: 70
[4]; Rate 4 g/ha
  Plant response rating (0 to 100), Soybean: 10
[4]; Rate 16 g/ha
  Plant response rating (0 to 100), Soybean: 30
[5]; POSTEMERGENCE, Rate 50 g/ha
  Plant response rating, Cheatgrass: 7
[5]; POSTEMERGENCE, Rate 200 g/ha
  Plant response rating, Cheatgrass: 10
[5]; PREEMERGENCE, Rate 50 g/ha
  Plant response rating, Cheatgrass: 2
[5]; Rate 200 g/ha, PREEMERGENCE
  Plant response rating, Cheatgrass: 6
[6]; POSTEMERGENCE, Rate 50 g/ha
  Plant response rating, Giant foxtail: 6
[6]; PREEMERGENCE, Rate 50 g/ha
  Plant response rating, Giant foxtail: 7
[6]; Rate 200 g/ha, POSTEMERGENCE
  Plant response rating, Giant foxtail: 9
[6]; Rate 200 g/ha, PREEMERGENCE
  Plant response rating, Giant foxtail: 8
[7]; 62 g/ha
  Plant response rating Lambsquarters: 100
[7]; 250 g/ha
  Plant response rating Lambsquarters: 100
[7]; Rate 4 g/ha
  Plant response rating (0 to 100), Lambsquarters: 90
[7]; Rate 16 g/ha
  Plant response rating (0 to 100), Lambsquarters: 100
[8]; 62 g/ha
  Plant response rating, Chickweed: 95
[8]; 250 g/ha
  Plant response rating, Chickweed: 100
[8]; Rate 4 g/ha
  Plant response rating (0 to 100), Chickweed: 30
[8]; Rate 16 g/ha
  Plant response rating (0 to 100), Chickweed: 80
[9]; POSTEMERGENCE, Rate 50 g/ha
  Plant response rating, Bedstraw: 9
[9]; POSTEMERGENCE, Rate 200 g/ha
  Plant response rating, Bedstraw: 9
[9]; PREEMERGENCE, Rate 50 g/ha
  Plant response rating, Bedstraw: 8
[9]; Rate 200 g/ha, PREEMERGENCE
  Plant response rating, Bedstraw: 10
[10]; 62 g/ha
  Plant response rating, Velvetleaf: 100
[10]; 250 g/ha
  Plant response rating, Velvetleaf: 100
[10]; Rate 4 g/ha
  Plant response rating (0 to 100), Velvetleaf: 80
[10]; Rate 16 g/ha
  Plant response rating (0 to 100), Velvetleaf: 90
[11]; [19]
  Plant response rating (0 to 100), Umbrella sedge: 30
[11]; [20]
  Plant response rating (0 to 100), Umbrella sedge: 60
[11]; 62 g/ha
  Plant response rating Umbrella sedge: 80
[11]; 250 g/ha
  Plant response rating Umbrella sedge: 100
[12]; POSTEMERGENCE, Rate 50 g/ha
  Plant response rating, Rape: 9
[12]; PREEMERGENCE, Rate 50 g/ha
  Plant response rating, Rape: 2
[12]; Rate 200 g/ha, POSTEMERGENCE
  Plant response rating, Rape: 10
[12]; Rate 200 g/ha, PREEMERGENCE
  Plant response rating, Rape: 8
[13]; POSTEMERGENCE, Rate 50 g/ha
  Plant response rating, Cotton: 10
[13]; POSTEMERGENCE, Rate 200 g/ha
  Plant response rating, Cotton: 10
[13]; PREEMERGENCE, Rate 50 g/ha
  Plant response rating, Cotton: 1
[13]; Rate 200 g/ha, PREEMERGENCE
  Plant response rating, Cotton: 8
[14]; POSTEMERGENCE, Rate 50 g/ha
  Plant response rating, Morningglory: 9
[14]; PREEMERGENCE, Rate 50 g/ha
  Plant response rating, Morningglory: 7
[14]; Rate 200 g/ha, POSTEMERGENCE
  Plant response rating, Morningglory: 10
[14]; Rate 200 g/ha, PREEMERGENCE
  Plant response rating, Morningglory: 10
[15]; POSTEMERGENCE, Rate 50 g/ha
  Plant response rating, Cocklebur: 9
[15]; POSTEMERGENCE, Rate 200 g/ha
  Plant response rating, Cocklebur: 10
[15]; PREEMERGENCE, Rate 50 g/ha
  Plant response rating, Cocklebur: 6
[15]; Rate 200 g/ha, PREEMERGENCE
  Plant response rating, Cocklebur: 9
[16]; 62 g/ha
  Plant response rating Barley Igri: 40
[16]; 250 g/ha
  Plant response rating Barley Igri: 60
[16]; Rate 4 g/ha
  Plant response rating (0 to 100), Barley Igri: 10
[16]; Rate 16 g/ha
  Plant response rating (0 to 100), Barley Igri: 30
[17]; POSTEMERGENCE, Rate 200 g/ha
  Plant response rating, Crabgrass: 10
[17]; PREEMERGENCE, Rate 50 g/ha
  Plant response rating, Crabgrass: 3
[17]; Rate 200 g/ha, PREEMERGENCE
  Plant response rating, Crabgrass: 9
[18]; 62 g/ha
  Plant response rating, Cotton: 100
[18]; 250 g/ha
  Plant response rating, Cotton: 100
[18]; Rate 4 g/ha
  Plant response rating (0 to 100), Cotton: 90
[18]; Rate 16 g/ha
  Plant response rating (0 to 100), Cotton: 100
